The source of these data is patent US4409325A, “Valproate conjugation using dicarbonyls” (Syva Company, priority 1981, dated 1983).

SMILES strings stand for the structures.

The conditions of data set [1]: humans, cited from earlier work.
The subject of a further data set is Antivalproate. The data set can be described thus: Homogeneous enzyme immunoassay for valproate (absorbance difference). In kind it is biochemical. As to conditions: difference in absorbance×2.667, 340 mn, 10 to 40 seconds. The text has this:
As previously indicated, the antibodies and enzyme reagents prepared in accordance with the subject invention find particular use in immunoassays for the determination of valproate. A description of the method for carrying out the immunoassay, which is a homogeneous enzyme immunoassay, may be found in U.S. Pat. No. 3,817,837. The method involves combining the enzyme conjugate, the unknown sample suspected of containing valproate, an antibody for valproate in an aqueous buffered medium at temperatures in the range of about 10° to 50°, more usually from about 20° to 40° C., and determining the enzyme activity as compared to the enzyme activity of an assay medium having a known amount of valproate.
In carrying out the assay, a Gilford 300 N microsample spectrophotometer is employed with a Thermocuvette with a flow cell. All readings are made at 340 mn. The following solutions are prepared as reagents for use in the assay.
Sufficient enzyme conjugate to give
a maximum rate of ΔOD equal to
Antivalproate optimized for assay
The protocol employed for carrying out an assay is as follows: A sample, 50 μl is drawn up into a diluter and dispensed with 250 μl of the assay buffer into a one ml Croan cup. A 50 μl aliquot of the diluted sample is drawn up and dispensed with a 250 μl portion of assay buffer into a second Croan cup. Into the second Croan cup is introduced 50 μl of the antibody reagent with 250 μl of the assay buffer, followed by the addition of 50 μl of the enzyme reagent and 250 μl of the assay buffer. Immediately after the enzyme addition, the entire sample is aspirated into the flow cell. After 10 seconds, a first reading is taken, followed by a second reading, after a 40 second interval from aspiration. The results are reported as the difference in absorbance×2.667.

The conditions of data set [2]: anticonvulsant use; cited from earlier work.
The conditions of data set [3]: antiepileptic; cited from earlier work.

Consider `CCCC(CCC)C(=O)O` [valproic acid, 2-propylpentanoic acid], for which the metabolism entry in data set [1] was “metabolized in humans via oxidation predominantly at the positions β and ω to the carboxylic acid”. Moreover, the excretion entry in data set [1] (urine) is “eventually excreted in urine as the free acids or via glucuronide formation”.
In the case of `CCCC(CCC)C(=O)[O-].[Na+]` [Valproate, sodium di-n-propylacetate], the ΔOD in the data set on Antivalproate (valproate 25 μg/ml) is on record as 630; in the data set on Antivalproate (valproate 50 μg/ml), 646; in the data set with Antivalproate (valproate 75 μg/ml), 666; in the data set on Antivalproate (valproate 100 μg/ml), 682; in the data set with Antivalproate (valproate 150 μg/ml), 714. The toxicity result in data set [2] was “low toxicity”. Also, the “minimum level in serum required for therapeutic efficacy” value in data set [3] was at least 50 µg/mL.
